Reference: article PMC12858405, “Ideal efficacy photoswitching for chromocontrol of TRPC4/5 channel functions in live tissues” (Nature Chemical Biology, 2026)

Target: T1, mouse TRPC5 (Mus musculus, UniProt Q9QX29)
T1 construct: expressed in transfected cells; host or cells: HEK293 (ATCC CRL 1573), stably transfected, tetracycline-induced
T1 sequence (Q9QX29 1-975): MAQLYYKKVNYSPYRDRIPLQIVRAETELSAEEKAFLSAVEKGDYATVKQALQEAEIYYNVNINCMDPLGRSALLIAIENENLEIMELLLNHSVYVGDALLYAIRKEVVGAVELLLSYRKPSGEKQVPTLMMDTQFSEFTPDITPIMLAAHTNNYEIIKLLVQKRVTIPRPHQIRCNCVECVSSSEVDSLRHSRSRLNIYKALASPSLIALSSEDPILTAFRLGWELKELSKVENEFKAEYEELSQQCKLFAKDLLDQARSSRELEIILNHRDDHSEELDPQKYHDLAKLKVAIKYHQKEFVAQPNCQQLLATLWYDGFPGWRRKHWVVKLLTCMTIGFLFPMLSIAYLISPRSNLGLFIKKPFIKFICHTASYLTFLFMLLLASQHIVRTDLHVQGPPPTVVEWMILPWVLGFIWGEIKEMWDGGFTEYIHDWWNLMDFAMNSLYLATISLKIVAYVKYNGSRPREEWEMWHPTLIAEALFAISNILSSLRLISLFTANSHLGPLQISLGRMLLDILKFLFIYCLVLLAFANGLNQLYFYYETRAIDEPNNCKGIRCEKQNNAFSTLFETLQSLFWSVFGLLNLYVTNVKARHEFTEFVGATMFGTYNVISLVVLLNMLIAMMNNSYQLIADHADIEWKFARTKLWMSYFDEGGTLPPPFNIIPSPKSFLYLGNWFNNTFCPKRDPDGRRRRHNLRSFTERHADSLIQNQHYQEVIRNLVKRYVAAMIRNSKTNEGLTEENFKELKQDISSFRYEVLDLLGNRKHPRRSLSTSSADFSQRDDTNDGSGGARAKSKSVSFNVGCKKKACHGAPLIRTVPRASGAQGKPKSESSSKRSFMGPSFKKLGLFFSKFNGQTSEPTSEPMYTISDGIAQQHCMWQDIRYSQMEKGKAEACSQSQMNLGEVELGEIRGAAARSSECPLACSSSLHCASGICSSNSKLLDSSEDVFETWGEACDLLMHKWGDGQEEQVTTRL
Experiment: FLIPR Ca2+ influx assay (Fluo-4) with 365/447 nm photoswitching, HEK293 stably expressing mouse TRPC5
Format: cell-based
Conditions: for Activity on TRPC5 in FLIPR screening: 365/447 nm cycles; for EC50: Z* = mostly-Z PSS under 365 nm LED, Fluo-4-loaded cells, read-out: Agonistic EC50 (365 nm) TRPC5
Text: We initially screened for the photoswitchability of activity in cells using a fluorometric imaging plate reader (FLIPR) calcium flux assay, with HEK293 cells stably expressing mouse TRPC4β or mouse TRPC5. Note, however, that the parallel-throughput FLIPR setup is limited to use fixed light-emitting diodes at 365 nm (good Z) and 447 nm (suboptimal E), which, combined with the slowness of the onset and recovery of the fluorescence readout for calcium, causes the FLIPR results to underestimate the reagents’ true speed, degree and completion of TRPC chromocontrol (shown later). […]
3 Cultured Cell Lines (primarily for Fig. 1 and Fig. 2)
3.1 FLIPR Ca2+ influx assay in cell suspensions.
We initially screened for photoswitchability of activity in cells, using a fluorometric imaging plate reader (FLIPR) calcium flux assay, with human embryonic kidney cell line HEK293 stably transfected to express mouse TRPC4β- or TRPC5-CFP fusion protein (HEKmTRPC4β-CFP / HEKmTRPC5-CFP, HEK293 obtained from ATCC CRL 1573). The FLIPR setup provides high-content data, but it is limited to using LED wavelengths of 365 nm (best-Z) and 447 nm (suboptimal-E), while imaging at 470 nm excitation (Fluo-4 AM as Ca2+ indicator; this imaging light counteracts both PSSs). Therefore, we expected the FLIPR results to under-estimate the true chromocontrol power accessible to the reagents.
Cells were grown to 70%-90% confluency in a 75-cm2 culture flask, trypsinised, washed and resuspended in BSA-containing (0.1%) HBS, and supplemented with 3 µM Fluo-4/AM. Stably TRPC-transfected cells were induced with tetracycline 24 h prior to the experiments.42,43 After incubation at 37°C for 30 min [Fluo-4 loading], cells were again washed, resuspended, and dispensed (40 µl/well) into black pigmented, clear-bottom 384-well plates (Greiner µ-clear). To image the Fluo-4 fluorescence during the application and photoswitching of test compounds, these plates were first mounted to a Tecan Fluent 480 (Tecan, Männedorf, Switzerland) liquid handling device, equipped with a 384-tip multichannel arm and a gripper arm. A custom-made plate-imaging device was used for photoswitching during fluorescence imaging, which features LED-based excitation modules (365 nm and 447 nm used here for photoswitching, and 470 nm used here for Fluo-4 readout) projected onto the bottom of the microwell plate, with a cooled scientific complementary metal oxide sensor (sCMOS) camera (Zyla 5.5, Andor, Belfast, UK) equipped with a Nokton 42.5 mm f/0.95 (Voigtlaender, Fürth, Germany) for detection. The LEDs were controlled with an Arduino device and constant current drivers (1 A for 365 and 470 nm LEDs; 3 A for 447 nm LED); detection was under the control of Micromanager 2.0 software. Compounds were serially diluted and applied to the Fluo-4-loaded cell suspensions inside this custom plate-imaging device, then fluorescence intensities (under 470 nm excitation) were continuously recorded during programmed illuminations e.g. with alternating 365 nm and 447 nm phases.
Concentration-response curves for the Z-isomers (channel activation) were then constructed from the maximal signals during 365 nm phases, after a suitable number of "priming" cycles to allow the system to reach stable performance (Supplementary Fig. 13).
All experiments were conducted as a minimum of 3 independent experiments with each experiment averaging data in technical duplicates. […]
Cellular TRPC5 photoswitching: HEK cell Ca2+ influx photomodulation […]
Supplementary Figure 12. […] All […]
four compounds' profiles are consistent with their being ideal efficacy photoswitches (representative traces from one experiment out of ≥3 independent experiments each run in technical duplicates). […]
log c [nM] log c [nM] log c [nM] log c [nM]
Supplementary Figure 13. Dose-response for Z*-AzPico, Z*-AzPico2, Z*-AzHC, and Z*-AzHC2 on TRPC5 and […]

Activity on TRPC5 in FLIPR screening | EC50 | Effect of E isomer alone on TRPC5 (12 pM to […], before 365-nm illumination) | SMILES
photoswitchable activity | 6.4 nM |  | Cn1c(=O)n(CCCO)c(=O)c2c1nc(Oc1ccc(N=Nc3ccccc3)c(Cl)c1)n2Cc1ccc(Cl)cc1 [AzHC]
photoswitchable activity | 4 nM |  | Cn1c(=O)n(CCCO)c(=O)c2c1nc(Oc1ccc(N=Nc3ccccc3)c(OC(F)(F)F)c1)n2Cc1ccc(Cl)cc1 [AzPico]
 |  | no effect | Cn1c(=O)n(CCCO)c(=O)c2c1nc(Oc1ccc(/N=N/c3ccccc3)c(OC(F)(F)F)c1)n2Cc1ccc(Cl)cc1 [E-AzPico]

SMILES | Activity on TRPC5 in FLIPR screening | EC50 | Effect of E isomer alone on TRPC5 (12 pM to […], before 365-nm illumination)
Cn1c(=O)n(CCCO)c(=O)c2c1nc(Oc1ccc(/N=N\c3ccccc3)c(Cl)c1)n2Cc1ccc(Cl)cc1 [Z*-AzHC] |  | 6.4 nM | 
